Laboratory results from patent publication USRE48335E1, “Polymyxin derivatives as antimicrobial compounds” (priority 2014, dated 2020).
Values after ≈ are worked out from the molar mass of the structure shown. Starred links: 1 amine or outer side, 2 acyl side, 3 side chain; linkers in the order of their positions; H or OH if unused. Positions of bridges follow the written chain, without caps; N, C: chain ends. Non-standard residues stand in square brackets, D forms with d. Residues, ends and D or L forms follow the SMILES beside them. ξ: configuration not given here. *: point of attachment. X2 = CC(C)C[C@@H](CC(=O)[C@H](CCN)N[*:1])C(=O)[*:2]; Benzoyl(3-CF3) = O=C(c1cccc(C(F)(F)F)c1)*; Thr(3ξ) = CC(O)[C@H](N)C(=O)O; Octanoyl = CCCCCCCC(=O)*; Dab = NCC[C@H](N)C(=O)O; Abu = CC[C@H](N)C(=O)O; Dap = NC[C@H](N)C(=O)O

How the values were obtained:
[1] = system: K. pneumoniae FADDI-KP032; assay: In vivo efficacy in mouse blood infection model (neutropenic Swiss mice); conditions: compound, free base 4 mg/kg intravenously 2 h after inoculation, blood at 4 h
How it was run: (§1)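 Activity expressed as Δlog10 CFU/mL blood, treated minus saline control, 4 h after a single 4 mg/kg (free base) i.v. dose given 2 h post-infection. Bloodstream infection from i.v. early log-phase inoculum in Swiss mice made neutropenic by i.p. cyclophosphamide on days −4 (150 mg/kg) and −1 (100 mg/kg).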

A. baumannii ATCC 19606 = assay: as above; conditions: compound, free base 4 mg/kg intravenously 2 h after inoculation, blood at 4 h
How it was run: as §1

P. aeruginosa ATCC 27853 = assay: as above; conditions: compound, free base 4 mg/kg intravenously 2 h after inoculation, blood at 4 h
How it was run: as §1

Pseudomonas aeruginosa = system: Pseudomonas aeruginosa
How it was run: (§2)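 Lipopeptide TFA salts are serially diluted in cation-adjusted Mueller-Hinton broth and inoculated per the CLSI M100-S18 broth microdilution method. The MIC is then recorded, with polymyxin B sulphate included as a control.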

Enterobacter cloacae = system: Enterobacter cloacae
How it was run: as §2

Acinetobacter baumannii = system: Acinetobacter baumannii
How it was run: as §2

Klebsiella pneumoniae = system: Klebsiella pneumoniae
How it was run: as §2

`CCCCCCCC(=O)N[C@@H](CCN)C(=O)N[C@H](C(=O)N[C@H](CO)C(=O)N[C@H]1CCNC(=O)[C@H](C(C)O)NC(=O)[C@H](CCN)NC(=O)[C@H](CCN)NC(=O)[C@H](C(C)O)NC(=O)[C@@H](CC(C)C)CC(=O)[C@H](CCN)NC1=O)C(C)O` (some centres unmarked) [Compound 1] (Octanoyl-[Dab][Thr(3ξ)][dS][Dab][X2][Thr(3ξ)][Dab][Dab][Thr(3ξ)]; lactam 4-C) was tested, and the “Δ log (Treated-Control at 4 h)” value [1] was −3.49 log10 CFU/mL, the “Δ log (Treated-Control at 4 h)” value (A. baumannii ATCC 19606) was −2.13 log10 CFU/mL and the “Δ log (Treated-Control at 4 h)” value (P. aeruginosa ATCC 27853) was 0.40 log10 CFU/mL. For the same molecule, the MIC (Pseudomonas aeruginosa) was 4 µg/mL (≈ 3.54 µM), the “Minimum inhibitory concentration, Pa ATCC 27853” value (Pseudomonas aeruginosa) was 4 µg/mL (≈ 3.54 µM) and the “Minimum inhibitory concentration, Pa FADDI-PA022” value (Pseudomonas aeruginosa) was 4 µg/mL (≈ 3.54 µM). For the same molecule, the “Minimum inhibitory concentration, Pa FADDI-PA025” value (Pseudomonas aeruginosa) was greater than 32 µg/mL, the “Minimum inhibitory concentration, Ec FADDI-EC001” value (Enterobacter cloacae) was less than 0.125 µg/mL and the “Minimum inhibitory concentration, Ec FADDI-EC003” value (Enterobacter cloacae) was less than 0.125 µg/mL. The “Minimum inhibitory concentration, Ec FADDI-EC006” value (Enterobacter cloacae) was 0.5 µg/mL (≈ 0.443 µM), the MIC (Acinetobacter baumannii) was less than 0.125 µg/mL and the “Minimum inhibitory concentration, Ab A ATCC 17978” value (Acinetobacter baumannii) was 0.25 µg/mL (≈ 0.221 µM). The “Minimum inhibitory concentration, Ab ATCC 19606” value (Acinetobacter baumannii) was 1 µg/mL (≈ 0.885 µM), the “Minimum inhibitory concentration, Ab FADDI-AB034” value (Acinetobacter baumannii) was 0.25 µg/mL (≈ 0.221 µM) and the MIC (Klebsiella pneumoniae) was 0.5 µg/mL (≈ 0.443 µM).
In the case of `CCCCCCCC(=O)N[C@@H](CCN)C(=O)N[C@H](C(=O)N[C@@H](CO)C(=O)N[C@H]1CCNC(=O)[C@H]([C@@H](C)O)NC(=O)[C@H](CCN)NC(=O)[C@H](CCN)NC(=O)[C@H]([C@@H](C)O)NC(=O)[C@@H](CC(C)C)NC(=O)[C@H](CCN)NC1=O)[C@@H](C)O` [Compound 4] (Octanoyl-[Dab]TS[Dab][Dab][dL]T[Dab][Dab]T; lactam 4-C), the “Δ log (Treated-Control at 4 h)” value [1] is reported as −1.84 log10 CFU/mL, the MIC (Pseudomonas aeruginosa) is reported as 4 µg/mL (≈ 3.54 µM) and the “Minimum inhibitory concentration, Pa ATCC 27853” value (Pseudomonas aeruginosa) is reported as 4 µg/mL (≈ 3.54 µM). For the same molecule, the “Minimum inhibitory concentration, Pa FADDI-PA022” value (Pseudomonas aeruginosa) was 8 µg/mL (≈ 7.08 µM), the “Minimum inhibitory concentration, Pa FADDI-PA025” value (Pseudomonas aeruginosa) was greater than 32 µg/mL and the “Minimum inhibitory concentration, Ec FADDI-EC001” value (Enterobacter cloacae) was 0.5 µg/mL (≈ 0.442 µM). The “Minimum inhibitory concentration, Ec FADDI-EC003” value (Enterobacter cloacae) was 0.25 µg/mL (≈ 0.221 µM), the “Minimum inhibitory concentration, Ec FADDI-EC006” value (Enterobacter cloacae) was 1 µg/mL (≈ 0.885 µM) and the MIC (Acinetobacter baumannii) was 8 µg/mL (≈ 7.08 µM). For the same molecule, the “Minimum inhibitory concentration, Ab A ATCC 17978” value (Acinetobacter baumannii) was 8 µg/mL (≈ 7.08 µM), the “Minimum inhibitory concentration, Ab ATCC 19606” value (Acinetobacter baumannii) was 8 µg/mL (≈ 7.08 µM) and the “Minimum inhibitory concentration, Ab FADDI-AB034” value (Acinetobacter baumannii) was 4 µg/mL (≈ 3.54 µM). The MIC (Klebsiella pneumoniae) was 1 µg/mL (≈ 0.885 µM).
With `CCCCCCCC(=O)N[C@@H](CCN)C(=O)N[C@H](C(=O)N[C@@H](CCN)C(=O)N[C@H]1CCNC(=O)[C@H]([C@@H](C)O)NC(=O)[C@H](CCN)NC(=O)[C@H](CCN)NC(=O)[C@H](CO)NC(=O)[C@@H](CC(C)C)NC(=O)[C@H](CCN)NC1=O)[C@@H](C)O` [Compound 25] (Octanoyl-[Dab]T[Dab][Dab][Dab][dL]S[Dab][Dab]T; lactam 4-C) the “Δ log (Treated-Control at 4 h)” value [1] was −2.65 log10 CFU/mL, the “Δ log (Treated-Control at 4 h)” value (A. baumannii ATCC 19606) was 0.27 log10 CFU/mL and the MIC (Pseudomonas aeruginosa) was greater than 32 µg/mL. For the same molecule, the “Minimum inhibitory concentration, Pa ATCC 27853” value (Pseudomonas aeruginosa) was greater than 32 µg/mL, the “Minimum inhibitory concentration, Pa FADDI-PA022” value (Pseudomonas aeruginosa) was 0.5 µg/mL (≈ 0.443 µM) and the “Minimum inhibitory concentration, Pa FADDI-PA025” value (Pseudomonas aeruginosa) was greater than 32 µg/mL. The “Minimum inhibitory concentration, Ec FADDI-EC001” value (Enterobacter cloacae) was less than 0.125 µg/mL, the “Minimum inhibitory concentration, Ec FADDI-EC003” value (Enterobacter cloacae) was 0.25 µg/mL (≈ 0.221 µM) and the “Minimum inhibitory concentration, Ec FADDI-EC006” value (Enterobacter cloacae) was 0.5 µg/mL (≈ 0.443 µM). For the same molecule, the MIC (Acinetobacter baumannii) was 8 µg/mL (≈ 7.08 µM), the “Minimum inhibitory concentration, Ab A ATCC 17978” value (Acinetobacter baumannii) was 4 µg/mL (≈ 3.54 µM) and the “Minimum inhibitory concentration, Ab ATCC 19606” value (Acinetobacter baumannii) was 8 µg/mL (≈ 7.08 µM). For the same molecule, the “Minimum inhibitory concentration, Ab FADDI-AB034” value (Acinetobacter baumannii) was 4 µg/mL (≈ 3.54 µM) and the MIC (Klebsiella pneumoniae) was 0.25 µg/mL (≈ 0.221 µM).
With `CC[C@@H]1NC(=O)[C@@H](CC(C)C)NC(=O)[C@H](CCN)NC(=O)[C@@H](NC(=O)[C@H](CN)NC(=O)[C@@H](NC(=O)[C@H](CCN)NC(=O)c2cccc(C(F)(F)F)c2)[C@@H](C)O)CCNC(=O)[C@H]([C@@H](C)O)NC(=O)[C@H](CCN)NC(=O)[C@H](CCN)NC1=O` [Compound 106] ({Benzoyl(3-CF3)}-[Dab]T[Dap][Dab][Dab][dL][Abu][Dab][Dab]T; lactam 4-C) the “Δ log (Treated-Control at 4 h)” value [1] was −2.77 log10 CFU/mL, the “Δ log (Treated-Control at 4 h)” value (P. aeruginosa ATCC 27853) was −2.33 log10 CFU/mL and the MIC (Pseudomonas aeruginosa) was 0.5 µg/mL (≈ 0.431 µM). The “Minimum inhibitory concentration, Pa ATCC 27853” value (Pseudomonas aeruginosa) was 0.5 µg/mL (≈ 0.431 µM), the “Minimum inhibitory concentration, Pa FADDI-PA022” value (Pseudomonas aeruginosa) was 0.5 µg/mL (≈ 0.431 µM) and the “Minimum inhibitory concentration, Pa FADDI-PA025” value (Pseudomonas aeruginosa) was 2 µg/mL (≈ 1.73 µM). The “Minimum inhibitory concentration, Ec FADDI-EC001” value (Enterobacter cloacae) was 0.25 µg/mL (≈ 0.216 µM), the “Minimum inhibitory concentration, Ec FADDI-EC003” value (Enterobacter cloacae) was 0.5 µg/mL (≈ 0.431 µM) and the “Minimum inhibitory concentration, Ec FADDI-EC006” value (Enterobacter cloacae) was 0.25 µg/mL (≈ 0.216 µM). The MIC (Acinetobacter baumannii) was 0.5 µg/mL (≈ 0.431 µM), the “Minimum inhibitory concentration, Ab A ATCC 17978” value (Acinetobacter baumannii) was 0.5 µg/mL (≈ 0.431 µM) and the “Minimum inhibitory concentration, Ab ATCC 19606” value (Acinetobacter baumannii) was 0.5 µg/mL (≈ 0.431 µM). The “Minimum inhibitory concentration, Ab FADDI-AB034” value (Acinetobacter baumannii) was 0.25 µg/mL (≈ 0.216 µM) and the MIC (Klebsiella pneumoniae) was 0.25 µg/mL (≈ 0.216 µM).
